Assay results taken from publication PMC5789092 (Scientific Reports, 2018).
Where two headings read alike, the source gives them in different places.

Tests used:
[1] = test system: PC-3 (human prostate cancer); test: SRB cytotoxicity assay, PC-3; format: cell-based; details: 72 h
[2] = test system: HepG2 (human liver cancer); test: SRB cytotoxicity assay, HepG2; format: cell-based; details: 72 h
[3] = test system: HEp-2 (human larynx epidermal cancer); test: SRB cytotoxicity assay, HEp-2; format: cell-based; details: 72 h, mean ± SD
From the text: (§1) All the synthesized derivatives of 1 and 2 were screened for their anticancer activities against four human cancer cell lines (HeLa, PC-3, HEp-2 and HepG2) and two normal cell lines (CHO and HUVEC) using the sulforhodamine B (SRB) assay.
(§2) PC-3 (human prostate cancer), HepG2 (human liver cancer) and CHO (Chinese hamster ovary) cell lines were obtained from Shanghai Institute of Biochemistry and Cell Biology, Chinese Academy of Sciences. HeLa (human cervix cancer), HUVEC (human umbilical vein endothelial cells) and HEp-2 (human laryngeal cancer) cell lines were granted by Prof. Lei of college of life sciences, Northwest A&F University. The six cell lines were grown in RPMI-1640 (Gibco) containing 10% (v/v) thermally inactivated fetal bovine serum (FBS), penicillin (100 KU/L) and streptomycin (100 KU/L) at 37 °C in a 5% CO2 humidified incubator.
(§3) In vitro cytotoxicity was assessed by using the SRB colorimetric assay refer to previous methods[19],[42].

[4] = test system: HeLa (human cervix cancer); test: SRB cytotoxicity assay, HeLa; format: cell-based; details: 72 h, mean ± SD
[5] = test system: HUVEC (human umbilical vein endothelial cell); test: SRB cytotoxicity assay, HUVEC normal cells; format: cell-based; details: for IC50: Homo sapiens, HUVEC, 72 h, SRB, normal cell line
[6] = test system: CHO (Chinese hamster ovary); test: SRB cytotoxicity assay, CHO normal cells; format: cell-based; details: Cricetulus griseus, 72 h, normal cell line
From the text: as §1, §2, §3

[7] = test system: PC-3 cells; test: Hoechst 33258 nuclear chromatin condensation, PC-3; format: cell-based, human; details: PC-3, 72 h; VP-16 0.5 and 1 μM; 1i 1, 2 and 4 μM
Protocol: (§4) Figure 10 Induction of apoptosis by active compound 1i and VP-16 at the indicated concentrations on PC-3 cells. (a) 72 h after the treatment of these compounds at the indicated concentrations, cells were fixed, washed with PBS, stained with Hoechst 33258, and analyzed for morphological characteristics associated with apoptosis by fluorescence microscopic analysis (×20). (b) Compound 1i triggered changes of pro-caspase 3 and PARP by Western blotting analysis. Cells were lysed after 72 h treatment with 1i at the concentration (1, 2 and 4 μM). The lysates were resolved on a 10% SDS-PAGE, transferred on to a nitrocellulose membrane and probed for cleaved caspase 3 and PARP. β-actin was used as a loading control.
Condensation of nuclear chromatin is usually the late apoptotic event and is detected by staining Hoechst 33258[43]. PC-3 cells containing 2.0 × 10^5 cells/well were cultured on coverslips, and kept in six-well plates for 12 h. After 72 h treatment with 1i and VP-16, Hoechst 33258 staining was carried out according to the kit’s procedure (Beyotime Institute Biotechnology, China). The cells were viewed under a fluorescence microscopy (Olympus BX53 + DP72) with a ×20 objective lens.

[8] = test system: PC-3 cells; test: Cell cycle analysis (PI staining, flow cytometry); format: cell-based, human; details: PC-3, 48 h
Protocol: The cultured cells were treated with these compounds at the indicated concentrations for 48 h, then harvested, and analyzed by flow cytometry. […] Each experiment was performed in triplicate.
The cell cycle arrest on PC-3 and HepG2 cells was detected with PI staining assay (Sigma) as described previously[19]. After treatment with samples at the set concentrations for 48 h, cells were centrifuged and fixed in 70% ethanol at 4 °C refrigerator 12 h and then resuspended in PBS (100 μL RNase A and 400 μL PI). Cellular DNA content was measured using a FACSCalibur flow cytometer with Modfit LT 3.0 software. Twenty thousand cells were collected per sample. Mean values are presented from three independent experiments.

[9] = test system: HepG2 cells; test: Hoechst 33258 nuclear morphology, HepG2; format: cell-based, human; details: HepG2, 72 h
Protocol: Figure S2. Induction of apoptosis by active compounds 1 and 1i at the indicated concentrations on HepG2 cells. 72 h after the treatment of these compounds at the indicated concentrations, cells were fixed, washed with PBS, stained with Hoechst 33258, and analyzed for morphological characteristics associated with apoptosis by fluorescence microscopic analysis (20×). NMR spectra

[10] = test system: pro-caspase 3 and PARP in PC-3 cells; test: Western blotting of pro-caspase 3 and PARP; format: cell-based, human; details: PC-3, 72 h, 1, 2 and 4 μM
Protocol: as §4
PC-3 cells were treated with the indicated concentrations (1, 2 and 4 µM) of 1i for 72 h, cell were collected and lysed. The protein concentration was measured by BCA method, and equal amount proteins were electrophoresed on 10% SDS-PAGE gel, electrotransferred onto NC membrane, and incubated with appropriate primary and secondary antibodies, protein blots were tested by ECL solution and ChemiDoc XRS+ imaging system (Bio-Rad, USA).

[11] = test system: HeLa, PC-3, HEp-2 and HepG2 cells; test: SRB cytotoxicity, summary over the cancer cell lines; format: cell-based, human
[12] = test system: CHO (Chinese hamster ovary); details: footnote b; ref Xiang et al.[22]; cited from earlier work
[13] = test system: HEp-2 (human larynx epidermal cancer); details: footnote b; ref Xiang et al.[22]; cited from earlier work
[14] = read-out: IC50 PC-3 (Table 3, C13-methylene modified derivatives)
[15] = read-out: IC50 HepG2 (Table 3, C13-methylene modified derivatives)
[16] = mean ± SD, read-out: IC50 HepG2

SMILES	IC50 [1, 14] [µM]	IC50 [2, 15] [µM]	IC50 [3] [µM]	IC50 ([1]; mean ± SD, read-out: IC50 PC-3) [µM]	IC50 [4] [µM]	IC50 [2, 16] [µM]	further results
COc1cc(C2=NO[C@]3(C2)C(=O)O[C@@H]2C[C@@]4(C)C(=O)CC[C@H](C)C4=C[C@@H]23)c(Cl)c(OC)c1OC [1q, (11 S)-16-(2-chloro-3,4,5-trimethoxylphenyl)-spiroisoxazoline-1-carbonyl-alantolactone]	> 40	> 40	–	–	–	–	–
C=C1C(=O)O[C@@H]2C[C@]3(C)C(=C(C)CC[C@H]3OC(C)=O)C[C@H]12 [2a, 1β-ethanoyl ivangustin]	–	–	> 40	28.9 ± 4.5	32.3 ± 2	> 40	–
C=C1C(=O)O[C@@H]2C[C@@]3(C)C(=O)CCC(C)=C3C[C@H]12 [2d, 1-carbonyl-ivangustin]	–	–	14.1 ± 2.9	7 ± 2.1	8.6 ± 1.4	7.7 ± 1.5	IC50 [5]: 10.5 ± 0.5 µM; IC50 [6]: 12.1 ± 5.2 µM
COc1ccc(Cl)cc1C1=NO[C@]2(C1)C(=O)O[C@@H]1C[C@@]3(C)C(=O)CC[C@H](C)C3=C[C@@H]12 [1p, (11 S)-16-(5-chloro-2-methoxylphenyl)-spiroisoxazoline-1-carbonyl-alantolactone]	> 40	> 40	–	–	–	–	–
C=C1C(=O)O[C@@H]2C[C@]3(C)C(=C[C@H]12)[C@@H](C)CC[C@H]3OC(=O)/C=C/c1ccc(C(F)(F)F)cc1 [1g, 1β-(4-trifluoromethyl) alantolactone]	–	–	> 40	11.8 ± 2.8	10 ± 2.1	15.2 ± 3.8	–
C=C1C(=O)O[C@@H]2C[C@]3(C)C(=C[C@H]12)[C@@H](C)CC[C@H]3OC(=O)c1ccccc1 [1b, 1β-benzoyl alantolactone]	–	–	> 40	> 40	25.5 ± 3.2	> 40	–
Cc1ccc(C2=NO[C@]3(C2)C(=O)O[C@@H]2C[C@@]4(C)C(=O)CC[C@H](C)C4=C[C@@H]23)cc1 [1k, (11 S)-16-(p-methylphenyl)-spiroisoxazoline-1-carbonyl-alantolactone]	> 40	> 40	–	–	–	–	–
C=C1C(=O)O[C@@H]2C[C@]3(C)C(=C(C)CC[C@H]3OC(=O)c3ccc(F)cc3)C[C@H]12 [2c, 1β-(4-fluorobenzoyl) ivangustin]	–	–	> 40	> 40	> 40	> 40	–
C=C1C(=O)O[C@@H]2C[C@]3(C)C(=C[C@H]12)[C@@H](C)CC[C@H]3OC(=O)CCC(=O)O [1h, 1β-carboxypropionyl alantolactone]	–	–	> 40	> 40	> 40	> 40	IC50 [5]: 39.5 ± 2.5 µM
C[C@H]1CCC(=O)[C@]2(C)C[C@H]3OC(=O)[C@]4(CC(c5ccccc5[N+](=O)[O-])=NO4)[C@H]3C=C12 [1m, (11 S)-16-(o-nitrophenyl)-spiroisoxazoline-1-carbonyl-alantolactone]	> 40	> 40	–	–	–	–	–
C[C@H]1CCC(=O)[C@]2(C)C[C@H]3OC(=O)[C@]4(CC(c5ccc([N+](=O)[O-])cc5)=NO4)[C@H]3C=C12 [1l, (11 S)-16-(p-nitrophenyl)-spiroisoxazoline-1-carbonyl-alantolactone]	> 40	> 40	–	–	–	–	–
C[C@H]1CCC(=O)[C@]2(C)C[C@H]3OC(=O)[C@]4(CC(c5ccc(Cl)cc5)=NO4)[C@H]3C=C12 [1n, (11 S)-16-(p-chlorophenyl)-spiroisoxazoline-1-carbonyl-alantolactone]	> 40	> 40	–	–	–	–	–
C=C1C(=O)O[C@@H]2C[C@]3(C)C(=C[C@H]12)[C@@H](C)CC[C@H]3OC(=O)/C=C/c1ccc(Br)cc1 [1f, 1β-(4-bromocinnamoyl) alantolactone]	–	–	> 40	18.7 ± 5.2	> 40	12.5 ± 2.2	–
COc1ccc(C2=NO[C@]3(C2)C(=O)O[C@@H]2C[C@@]4(C)C(=O)CC[C@H](C)C4=C[C@@H]23)cc1 [1o, (11 S)-16-(p-methoxyphenyl)-spiroisoxazoline-1-carbonyl-alantolactone]	> 40	> 40	–	–	–	–	–
CC1CCC(OC(=O)c2ccccc2)C2(C)CC3OC(=O)C4(CCC(=O)O4)C3C=C12 (stereo not drawn) [1j, 1β-benzoyl alanto-spirobislactone]	> 40	> 40	–	–	–	–	–
C=C1C(=O)O[C@@H]2C[C@@]3(C)C(=O)CC[C@H](C)C3=C[C@H]12 [1i, 1-carbonyl-alantolactone]	> 40	> 40	3.5 ± 0.9	2.5 ± 0.8	2.7 ± 0.1	5.1 ± 0.2	nuclear morphology (Hoechst 33258), apoptosis [7]: apoptotic tendency was apparent; %G0/G1 ([8]; 1.0 μM): 50.5%; %G2/M ([8]; 1.0 μM): 17.5%; %S ([8]; 1.0 μM): 32.0%; %G0/G1 ([8]; 2.0 μM): 47.7%; %G2/M ([8]; 2.0 μM): 18.5%; %S ([8]; 2.0 μM): 33.8%; %G0/G1 ([8]; 4.0 μM): 44.6%; %G2/M ([8]; 4.0 μM): 19.5%; %S ([8]; 4.0 μM): 35.9%; nuclear morphology (Hoechst 33258), apoptosis [9]: Changes of nuclear morphology; IC50 [5]: 8.8 ± 0.7 µM; selectivity index (IC50 on four cancer cells versus HUVEC cells) ([5]; comparison of IC50 between four cancer cells and HUVEC): 2–3; IC50 [6]: 2.5 ± 0.2 µM; pro-caspase 3 and cleavage of PARP (Western blot) [10]: significant dose-dependent decrease in pro-caspase 3 and the cleavage of its substrate PARP
CC1CCC(O)C2(C)CC3OC(=O)C(C)C3C=C12 (stereo not drawn) [1r, (11 S)-1β-hydroxy alantolactone derivative]	> 50	> 50	–	–	–	–	cytotoxic activity in words ([11]; SAR statement on Tables 2 and 3): loss of cytotoxic activity
C=C1C(=O)OC2CC3(C)C(=CC12)C(C)CCC3OC(C)=O (stereo not drawn) [1a, 1β-ethanoyl alantolactone]	–	–	10.3 ± 1.8	8.1 ± 0.3	8.2 ± 1	6.3 ± 1.3	IC50 [5]: 12.3 ± 1.6 µM; IC50 [6]: 10.3 ± 1.8 µM
C=C1C(=O)O[C@@H]2C[C@]3(C)C(=C[C@H]12)[C@@H](C)CC[C@H]3OC(=O)c1ccc(F)cc1 [1c, 1β-(4-fluorobenzoyl) alantolactone]	–	–	> 40	> 40	> 40	> 40	–
C=C1C(=O)O[C@@H]2C[C@]3(C)C(=C[C@H]12)[C@@H](C)CC[C@H]3OC(=O)c1ccc(OC)cc1 [1e]	–	–	> 40	> 40	> 40	34.1 ± 4.8	–
C=C1C(=O)O[C@@H]2C[C@]3(C)C(=C(C)CC[C@H]3OC(=O)c3ccccc3)C[C@H]12 [2b, 1β-benzoyl ivangustin]	–	–	> 40	> 40	27.9 ± 2.5	> 40	–
C=C1C(=O)OC2CC3(C)C(=CC12)C(C)CCC3O (stereo not drawn) [compound 1, 1β-hydroxyalantolactone]	–	–	–	4.5 ± 0.7	3.2 ± 0.8	5.2 ± 0.1	%G0/G1 ([8]; 1.0 μM): 51.2%; %G2/M ([8]; 1.0 μM): 17.1%; %S ([8]; 1.0 μM): 31.7%; %G0/G1 ([8]; 2.0 μM): 49.3%; %G2/M ([8]; 2.0 μM): 16.7%; %S ([8]; 2.0 μM): 34.0%; %G0/G1 ([8]; 4.0 μM): 45.8%; %G2/M ([8]; 4.0 μM): 18.0%; %S ([8]; 4.0 μM): 36.2%; IC50 [12]: 6.4 ± 0.1 µM; IC50 [13]: 3.3 ± 0.2 µM; IC50 [5]: 9.2 ± 0.1 µM; IC50 ([11]; Homo sapiens, range over four cancer cell lines, read-out: IC50 range against HeLa, PC-3, HEp-2 and HepG2 cells): 3.2 to 6.4 µM
C=C1C(=O)O[C@@H]2C[C@]3(C)C(=C[C@H]12)[C@@H](C)CC[C@H]3OC(=O)c1ccc([N+](=O)[O-])cc1 [1d]	–	–	> 40	> 40	> 40	23.5 ± 3.6	–
